Assay results from US7776794B2, “Biosensor using living cells on silicon-based microarrays” (The Research Foundation of State University of New York, priority 2003, dated 2010).

System: FT cells
Test: Amperometric recording of norepinephrine release from pre-loaded FT cells on the microarray upon ATP stimulation
Format: cell-based, Rana catesbeiana
Details: ATP final concentration 300 μM in FT medium; FT cells preloaded in 4 mM NE for 15 min; single electrode held at 700 mV (FIG. 9, trace 1)
Procedure: The cells, which have grown to become a confluent monolayer on the surface of the microarray, are “pre-loaded” with medium containing the appropriate amount of an oxidizable molecule, for example, 0.5-10 mM of a catecholamine such as norepinephrine (NE), for a time sufficient for the cells to endocytose the catecholamine, about 1-30 minutes. The pre-loading medium is then replaced with fresh medium, and the solution is grounded with a Ag/AgCl wire.
Within minutes of pre-loading, the cells are then exposed to a biological sample containing an analyte, the detection of which is desired. Binding of analyte to a receptor on the cells' surface increases intracellular calcium, thereby stimulating release of the pre-loaded NE. This secretion event is detected with millisecond temporal resolution via electrochemical oxidation of the secreted compound on an electrode that is voltage-clamped slightly above its redox potential. Increases in current due to oxidation of NE on the Cr/Au electrode is recorded. This is represented schematically in FIG. 4.
A microarray containing a confluent growth of FT cells was subsequently tested. To test the response properties of the cells to ATP (0.3 mM), microarrays with confluent cultures of cells were measured prior to preloading with NE. Then, cells were pre-loaded with varying concentrations of NE and ATP was reapplied. […]

Nc1ncnc2c1ncn2[C@@H]1O[C@H](COP(=O)(O)OP(=O)(O)OP(=O)(O)O)[C@@H](O)[C@H]1O [ATP]
duration of current response: 9 to 10 min | peak current above baseline: approximately 800 pA
